Data from patent publication US20220306695A1, “COMPSTATIN ANALOGUES AND THEIR MEDICAL USES” (priority 2019, published 2022).
Starred links: 1 amine or outer side, 2 acyl side, 3 side chain; linkers in the order of their positions; H or OH if unused. Positions of bridges follow the written chain, without caps; N, C: chain ends. Non-standard residues stand in square brackets, D forms with d. Residues, ends and D or L forms follow the SMILES beside them. Groups on a side chain read outwards from the residue. *: point of attachment. X1 = O=C(O)CCCCCCCCCCCCCCC(=O)N1CCN(CC(=O)*)CC1; Trp(1-Me) = Cn1cc(C[C@H](N)C(=O)O)c2ccccc21; C16 diacid = O=C(O)CCCCCCCCCCCCCCC(=O)*; γGlu = O=C(O)[C@H](CCC(=O)[*:2])N[*:1]; AEEA = NCCOCCOCC(=O)O; Sar = CNCC(=O)O

System: classical complement pathway
Test: In vitro haemolysis assay (inhibition of classical complement pathway)
Assay type: cell-based, human
Conditions: Table 3; human serum, sensitized sheep red blood cells; read-out: IC50[nM], in vitro analysis of inhibition of hemolysis
Summary of the method: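 Serially diluted compound (9 points) was preincubated 15 min at room temperature with diluted human serum, titrated per batch to give 70-90% maximal haemolysis, in Tris/casein buffer pH 7.4 with Mg2+/Ca2+. Antibody-sensitized sheep erythrocytes were then added for 30 min at 37° C, and the reaction was stopped with EDTA. Haemolysis was read at A405, with IC50 from 4PL fit.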

Structure (SMILES)	IC50 [nM]
CC[C@H](C)[C@@H]1NC(=O)[C@@H](NC(=O)[C@H](Cc2ccc(O)cc2)NC(=O)[C@H](C)NC(=O)[C@H](CO)NC(=O)CNC(=O)[C@H](CCC(=O)O)NC(C)=O)CSSC[C@@H](C(=O)N(C)CC(=O)N[C@@H](CCC(=O)O)C(N)=O)NC(=O)[C@H](CCCNC(=N)N)NC(=O)[C@H](Cc2c[nH]cn2)NC(=O)[C@H](CCC(=O)O)NC(=O)CNC(=O)[C@H](Cc2c[nH]c3ccccc23)NC(=O)[C@H](CCC(=O)O)NC(=O)[C@H](CCC(N)=O)NC(=O)[C@H](Cc2cn(C)c3ccccc23)NC1=O [Compound 70] (Ac-EGSAYCI[Trp(1-Me)]QEWGEHRC[Sar]E-NH2; disulfide 6-16)	< 100
CC[C@H](C)[C@@H]1NC(=O)[C@@H](NC(=O)[C@H](Cc2ccc(O)cc2)NC(=O)[C@H](CCC(=O)O)NC(=O)[C@H](CO)NC(C)=O)CSSC[C@@H](C(=O)N(C)CC(=O)N[C@@H](CCC(=O)O)C(=O)N[C@@H](C)C(N)=O)NC(=O)[C@H](CCCNC(=N)N)NC(=O)[C@H](Cc2c[nH]cn2)NC(=O)[C@H](CCC(=O)O)NC(=O)CNC(=O)[C@H](Cc2c[nH]c3ccccc23)NC(=O)[C@H](CC(=O)O)NC(=O)[C@H](CCC(N)=O)NC(=O)[C@H](Cc2cn(C)c3ccccc23)NC1=O [Compound 71] (Ac-SEYCI[Trp(1-Me)]QDWGEHRC[Sar]EA-NH2; disulfide 4-14)	< 100
CC[C@H](C)[C@@H]1NC(=O)[C@@H](NC(=O)[C@H](Cc2ccccc2)NC(=O)[C@H](CCC(=O)O)NC(=O)[C@H](CO)NC(C)=O)CSSC[C@@H](C(=O)N(C)CC(=O)N[C@@H](CCC(=O)O)C(=O)N[C@@H](C)C(N)=O)NC(=O)[C@H](CCCNC(=N)N)NC(=O)[C@H](Cc2c[nH]cn2)NC(=O)[C@H](CCC(=O)O)NC(=O)CNC(=O)[C@H](Cc2c[nH]c3ccccc23)NC(=O)[C@H](CCC(=O)O)NC(=O)[C@H](CCC(N)=O)NC(=O)[C@H](Cc2cn(C)c3ccccc23)NC1=O [Compound 83] (Ac-SEFCI[Trp(1-Me)]QEWGEHRC[Sar]EA-NH2; disulfide 4-14)	< 100
CC[C@H](C)[C@@H]1NC(=O)[C@@H](NC(=O)[C@H](Cc2ccccc2)NC(=O)[C@H](CCC(=O)O)NC(=O)[C@H](CO)NC(C)=O)CSSC[C@@H](C(=O)N[C@@H](CO)C(=O)N[C@@H](CCC(=O)O)C(=O)N[C@@H](C)C(N)=O)NC(=O)[C@H](CCCNC(=N)N)NC(=O)[C@H](Cc2c[nH]cn2)NC(=O)[C@H](CCC(=O)O)NC(=O)CNC(=O)[C@H](Cc2c[nH]c3ccccc23)NC(=O)[C@H](CC(=O)O)NC(=O)[C@H](CCC(N)=O)NC(=O)[C@H](Cc2cn(C)c3ccccc23)NC1=O [Compound 84] (Ac-SEFCI[Trp(1-Me)]QDWGEHRCSEA-NH2; disulfide 4-14)	< 100
CC[C@H](C)[C@@H]1NC(=O)[C@@H](NC(=O)[C@H](Cc2ccccc2)NC(=O)[C@H](CCC(=O)O)NC(C)=O)CSSC[C@@H](C(=O)N[C@@H](CCC(=O)O)C(=O)N[C@@H](CO)C(N)=O)NC(=O)[C@H](CCCNC(=N)N)NC(=O)[C@H](Cc2c[nH]cn2)NC(=O)[C@H](CCC(=O)O)NC(=O)CNC(=O)[C@H](Cc2c[nH]c3ccccc23)NC(=O)[C@H](CC(=O)O)NC(=O)[C@H](CCC(N)=O)NC(=O)[C@H](Cc2cn(C)c3ccccc23)NC1=O [Compound 85] (Ac-EFCI[Trp(1-Me)]QDWGEHRCES-NH2; disulfide 3-13)	< 100
CC[C@H](C)[C@@H]1NC(=O)[C@@H](NC(=O)[C@H](Cc2ccccc2)NC(=O)[C@H](CCC(=O)O)NC(=O)[C@H](CO)NC(C)=O)CSSC[C@@H](C(=O)N(C)CC(=O)N[C@@H](CCC(=O)O)C(=O)N[C@@H](C)C(N)=O)NC(=O)[C@H](CCCCN)NC(=O)[C@H](Cc2c[nH]cn2)NC(=O)[C@H](CCC(=O)O)NC(=O)CNC(=O)[C@H](Cc2c[nH]c3ccccc23)NC(=O)[C@H](CC(=O)O)NC(=O)[C@H](CCC(N)=O)NC(=O)[C@H](Cc2cn(C)c3ccccc23)NC1=O [Compound 86] (Ac-SEFCI[Trp(1-Me)]QDWGEHKC[Sar]EA-NH2; disulfide 4-14)	< 100
CC[C@H](C)[C@@H]1NC(=O)[C@@H](NC(=O)[C@H](Cc2ccccc2)NC(=O)[C@H](CCC(=O)O)NC(=O)CNC(C)=O)CSSC[C@@H](C(=O)N(C)CC(=O)N[C@@H](CCC(=O)O)C(=O)N[C@@H](C)C(N)=O)NC(=O)[C@H](CCCNC(=N)N)NC(=O)[C@H](Cc2c[nH]cn2)NC(=O)[C@H](CCC(=O)O)NC(=O)CNC(=O)[C@H](Cc2c[nH]c3ccccc23)NC(=O)[C@H](CC(=O)O)NC(=O)[C@H](CCC(N)=O)NC(=O)[C@H](Cc2cn(C)c3ccccc23)NC1=O [Compound 87] (Ac-GEFCI[Trp(1-Me)]QDWGEHRC[Sar]EA-NH2; disulfide 4-14)	< 100
CC[C@H](C)[C@@H]1NC(=O)[C@@H](NC(=O)CN(C)C(=O)[C@H](CCC(=O)O)NC(=O)CNC(C)=O)CSSC[C@@H](C(=O)N[C@H](C(=O)N[C@@H](CCC(=O)O)C(=O)N[C@@H](C)C(N)=O)[C@@H](C)O)NC(=O)[C@H](CCCNC(=N)N)NC(=O)[C@H](Cc2c[nH]cn2)NC(=O)[C@H](CCC(=O)O)NC(=O)CNC(=O)[C@H](Cc2c[nH]c3ccccc23)NC(=O)[C@H](CC(=O)O)NC(=O)[C@H](CCC(N)=O)NC(=O)[C@H](Cc2cn(C)c3ccccc23)NC1=O [Compound 88] (Ac-GE[Sar]CI[Trp(1-Me)]QDWGEHRCTEA-NH2; disulfide 4-14)	< 100
CC[C@H](C)[C@@H]1NC(=O)[C@@H](NC(=O)CN(C)C(=O)[C@H](CCC(=O)O)NC(=O)[C@H](CO)NC(C)=O)CSSC[C@@H](C(=O)N[C@H](C(=O)N[C@@H](CCC(=O)O)C(=O)N[C@@H](C)C(N)=O)[C@@H](C)O)NC(=O)[C@H](CCCNC(=N)N)NC(=O)[C@H](Cc2c[nH]cn2)NC(=O)[C@H](CCC(=O)O)NC(=O)CN(C)C(=O)[C@H](Cc2c[nH]c3ccccc23)NC(=O)[C@H](CCC(=O)O)NC(=O)[C@H](CCC(N)=O)NC(=O)[C@H](Cc2cn(C)c3ccccc23)NC1=O [Compound 89, Ac-SE[Sar]C(1)I[1-Me-Trp]QEW[Sar]EHRC(1)TEA-NH2] (Ac-SE[Sar]CI[Trp(1-Me)]QEW[Sar]EHRCTEA-NH2; disulfide 4-14)	< 100
CC[C@H](C)[C@@H]1NC(=O)[C@@H](NC(=O)CN(C)C(=O)[C@H](CCC(=O)O)NC(=O)[C@H](CO)NC(C)=O)CSSC[C@@H](C(=O)N(C)CC(=O)N[C@@H](CCC(=O)O)C(=O)N[C@@H](C)C(N)=O)NC(=O)[C@H](CCCNC(=N)N)NC(=O)[C@H](Cc2c[nH]cn2)NC(=O)[C@H](CCC(=O)O)NC(=O)CNC(=O)[C@H](Cc2c[nH]c3ccccc23)NC(=O)[C@H](CCC(=O)O)NC(=O)[C@H](CCC(N)=O)NC(=O)[C@H](Cc2cn(C)c3ccccc23)NC1=O [Compound 90] (Ac-SE[Sar]CI[Trp(1-Me)]QEWGEHRC[Sar]EA-NH2; disulfide 4-14)	< 250
CC[C@H](C)[C@@H]1NC(=O)[C@@H](NC(=O)CN(C)C(=O)[C@H](N)Cc2ccc(O)cc2)CSSC[C@@H](C(=O)N[C@H](C(=O)N[C@@H](CCC(=O)O)C(=O)N[C@@H](C)C(N)=O)[C@@H](C)O)NC(=O)[C@H](CCCNC(=N)N)NC(=O)[C@H](Cc2c[nH]cn2)NC(=O)[C@H](CCC(=O)O)NC(=O)CNC(=O)[C@H](Cc2c[nH]c3ccccc23)NC(=O)[C@H](CC(=O)O)NC(=O)[C@H](CCC(N)=O)NC(=O)[C@H](Cc2cn(C)c3ccccc23)NC1=O [Compound 91] (H-[dY][Sar]CI[Trp(1-Me)]QDWGEHRCTEA-NH2; disulfide 3-13)	< 100
CC[C@H](C)[C@H](NC(C)=O)C(=O)N[C@H]1CSSC[C@@H](C(=O)N[C@H](C(=O)N[C@@H](CCC(=O)O)C(=O)NCC(=O)N[C@@H](CCCCNC(=O)CC[C@H](NC(=O)CCCCCCCCCCCCCCC(=O)O)C(=O)O)C(N)=O)[C@@H](C)O)NC(=O)[C@H](CCCNC(=N)N)NC(=O)[C@H](Cc2c[nH]cn2)NC(=O)[C@H](CCC(=O)O)NC(=O)CNC(=O)[C@H](Cc2c[nH]c3ccccc23)NC(=O)[C@H](CC(=O)O)NC(=O)[C@H](CCC(N)=O)NC(=O)[C@H](Cc2c[nH]c3ccccc23)NC(=O)[C@H]([C@@H](C)CC)NC1=O [Compound 92] (Ac-ICIWQDWGEHRCTEGK([γGlu-C16 diacid])-NH2; disulfide 2-12)	< 1000
CC[C@H](C)[C@H](NC(C)=O)C(=O)N[C@H]1CSSC[C@@H](C(=O)N[C@H](C(=O)N[C@@H](CCC(=O)O)C(=O)NCC(=O)N[C@@H](CCCCNC(=O)COCCOCCNC(=O)COCCOCCNC(=O)CC[C@H](NC(=O)CCCCCCCCCCCCCCC(=O)O)C(=O)O)C(N)=O)[C@@H](C)O)NC(=O)[C@H](CCCNC(=N)N)NC(=O)[C@H](Cc2c[nH]cn2)NC(=O)[C@H](CCC(=O)O)NC(=O)CNC(=O)[C@H](Cc2c[nH]c3ccccc23)NC(=O)[C@H](CC(=O)O)NC(=O)[C@H](CCC(N)=O)NC(=O)[C@H](Cc2c[nH]c3ccccc23)NC(=O)[C@H]([C@@H](C)CC)NC1=O [Compound 93] (Ac-ICIWQDWGEHRCTEGK([AEEA-AEEA-γGlu-C16 diacid])-NH2; disulfide 2-12)	< 500
CC[C@H](C)[C@H](NC(C)=O)C(=O)N[C@H]1CSSC[C@@H](C(=O)N[C@H](C(=O)N[C@@H](CCC(=O)O)C(=O)NCC(=O)N[C@@H](CCCCNC(=O)COCCOCCNC(=O)COCCOCCNC(=O)CN2CCN(C(=O)CCCCCCCCCCCCCCC(=O)O)CC2)C(N)=O)[C@@H](C)O)NC(=O)[C@H](CCCNC(=N)N)NC(=O)[C@H](Cc2c[nH]cn2)NC(=O)[C@H](CCC(=O)O)NC(=O)CNC(=O)[C@H](Cc2c[nH]c3ccccc23)NC(=O)[C@H](CC(=O)O)NC(=O)[C@H](CCC(N)=O)NC(=O)[C@H](Cc2c[nH]c3ccccc23)NC(=O)[C@H]([C@@H](C)CC)NC1=O [Compound 95] (Ac-ICIWQDWGEHRCTEGK([AEEA-AEEA-X1])-NH2; disulfide 2-12)	< 500
